For 55 compounds, activity change, negative = cytotoxicity results are on record in PubChem BioAssay AID504726 (Broad Institute, 2011).

Active and inactive are the calls of the source.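 The calls were made as follows: active = fitted half-maximal concentration for a cytotoxic signal drop no higher than ten times the top valid dose tested; inconclusive = flat curve between -70 and -30 percent, or an unreliable fit; inactive = flat within 30 percent, signal rise, or potency beyond limit.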

This assay in a line: viability loss in HeLa cells – cell-based, 24 h, cherry-picked samples, cytotoxicity control, dose response (AID 504726).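 Also: 0% = DMSO neutral controls and -100% = mitoxantrone positive controls.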 To be noted: HeLa viability, CellTiter-Glo ATP luminescence, 24 h; at 35 µM (top of the series). For orientation: Cellular ATP, detected with luciferase, serves as a proxy for viable cell number.
With `O=C(c1cccc(S(=O)(=O)NCc2ccccc2)c1)N1CCN(c2ccccc2Cl)CC1`, the activity change, negative = cytotoxicity was 0.089% (inactive). As for `CCn1c(=O)c(C(=O)NCCN2CCCCC2)c(O)c2ccccc21`, the figure is 1.6% (inactive); as for `CCOC(=O)C1CCCN(c2ccc([N+](=O)[O-])c3nonc23)C1` (stereo not given), -8.2% (inactive); as for `CCOc1ccc(/C=C2\CCCc3c2nc2ccccc2c3C(=O)O)cc1OC`, -5% (inactive). As for `COc1cccc(-c2cc(C(=O)N3CCN(S(=O)(=O)c4ccccc4)CC3)[nH]n2)c1`, the figure is -17.3% (inactive); as for `COc1ccc(Cn2nnc3c(=O)[nH]c(C4CCCN(C(=O)c5ccccc5)C4)nc32)cc1` (stereo not given), -5.25% (inactive). For the compound `COc1ccc(-c2csc(NC(=O)CSc3nc(C)nc4sc(C(=O)O)c(C)c34)n2)cc1`, the activity change, negative = cytotoxicity is -1.52% (inactive). As to `O=C(OCC(=O)N1N=C(c2ccc(Cl)cc2)CC1c1ccco1)c1cccnc1` (stereo not given), the activity change, negative = cytotoxicity is -11.7% (inactive). The same measure for `O=C(O)Cc1c[nH]c2cccc(O)c12`: -14.7% (inactive); for `CC(C)=C1C2C=CC1C(C(=O)Nc1cc(C)ccc1C)C2C(=O)O` (stereo not given): -4.56% (inactive).

On to `CCn1c(SCc2nc3sc(C(=O)O)c(C)c3c(=O)[nH]2)nc2ccccc21`, for which the activity change, negative = cytotoxicity was -9.24% (inactive).

`COc1ccc(NS(=O)(=O)c2ccc(C)c(C(=O)N(C)Cc3ccc(OC)cc3OC)c2)cc1`: the activity change, negative = cytotoxicity is -7.58% (inactive). The same measure for `CCSc1nnc(Cc2cc(=O)[nH]c(=O)[nH]2)n1-c1ccc(F)cc1`: -15.6% (inactive); for `CCOC(=O)N1CCN(C(=S)NC(=O)c2cccc(OC)c2)CC1`: -2.14% (inactive).

As to `COc1ccc(Br)cc1CNC(=O)CCCc1cn(C)c2ccccc12`, the activity change, negative = cytotoxicity was -12.1% (inactive).

On to `Oc1ccc(-c2nc3ccccn3c2NCc2ccco2)cc1`, for which the activity change, negative = cytotoxicity was -4.28% (inactive).

For `O=c1ccc2cc3c4c(c2o1)CCCN4CCC3`, the activity change, negative = cytotoxicity was -19.7% (inactive). As for `C=CCN1C(=O)/C(=c2\sc3nc(=O)c(Cc4ccccc4Cl)nn3c2=O)c2ccccc21`, the figure is -9.87% (inactive); as for `O=C(Cn1nc(Cc2ccncc2)c2ccccc2c1=O)N1CCN(C(=O)c2ccco2)CC1`, -4.22% (inactive). Take `CN(N=Nc1ccc([N+](=O)[O-])cc1)c1ccccc1`: the activity change, negative = cytotoxicity is -18.3% (inactive).

In the case of `COc1ccccc1CNC(=O)C(=O)NCC1CCCN1S(=O)(=O)c1cccs1` (stereo not given), the activity change, negative = cytotoxicity was -4.86% (inactive). For the compound `CCOCCCn1c(SCC(=O)NC(C)(C)C)nc2ccccc2c1=O`, the activity change, negative = cytotoxicity is -18.7% (inactive). The same measure for `O=C(O)c1cccc(-n2cccc2/C=C/[N+](=O)[O-])c1`: -0.655% (inactive).

For `COc1ccc(C2C(C(=O)c3cccs3)=C(O)C(=O)N2c2nncs2)cc1` (stereo not given), the activity change, negative = cytotoxicity is -14.2% (inactive). The same measure for `Nc1cccc2cc(S(=O)(=O)O)ccc12`: 5.33% (inactive). Turning to `Cc1ccc(N2CC(C(=O)Nc3nnc(SCC(=O)Nc4nc(C)cs4)s3)CC2=O)cc1` (stereo not given), the activity change, negative = cytotoxicity is -3.6% (inactive). For `COc1cccc(NC(=O)CN(C)C(=O)c2cc3ccccc3cc2OC)c1`, the activity change, negative = cytotoxicity was 6.23% (inactive). In the case of `O=C1c2cccc3c(O)ccc(c23)C(=O)N1c1ccc(Cl)cc1`, the activity change, negative = cytotoxicity is -8.83% (inactive).

On to `NNC(=O)CC1=NNC(=O)C1`, for which the activity change, negative = cytotoxicity was -0.701% (inactive). Regarding `CC(C)CN(C(=O)CSc1nncn1C)C1CCS(=O)(=O)C1` (stereo not given), the activity change, negative = cytotoxicity is 4.85% (inactive). As for `Cc1cnc(NC(=O)Cc2c[nH]c3ccccc23)s1`, the figure is -3.77% (inactive); as for `COc1cccc(NC(=S)N2CCN(C(c3ccccc3)c3ccccc3)CC2)c1`, -2.14% (inactive). As for `Cn1c(=O)c(NCCO)c2c3c(cccc31)C(=O)c1ccccc1-2`, the figure is -6.61% (inactive). As for `NC1=NC[C@@H](Cc2ccc(O)cc2)N1CCc1cc(C(F)(F)F)cc(C(F)(F)F)c1`, the figure is -9.29% (inactive).

`O=C(OCCN1C(=O)c2cccc3c(N4CCOCC4)ccc(c23)C1=O)c1ccc(Cl)cc1`: the activity change, negative = cytotoxicity was -11.7% (inactive). The same measure for `O=C(O)/C=C/c1ccccc1Oc1ccccc1`: -8.62% (inactive).

Turning to `Cc1cccnc1NC1(C(F)(F)F)N=C2SCCN2C1=O` (stereo not given), the activity change, negative = cytotoxicity was -2.93% (inactive). As for `COc1ccc(OC)c(NC(=O)c2nnn(Cc3ccc(Br)cc3F)c2N)c1`, the figure is -9.89% (inactive); as for `CC(C)C(C(=O)O)N1C(=O)/C(=C/C=C/c2ccco2)SC1=S` (stereo not given), -14.8% (inactive). The same measure for `Cc1ccc(CSc2ncnc3onc(C)c23)cc1`: -13.2% (inactive); for `CC1=NCCc2c1[nH]c1cc(O)ccc21`: -12.7% (inactive); for `O=C(Cn1ncc(N2CCCC2)c(Cl)c1=O)c1ccc(Cl)cc1`: 7.35% (inactive). As for `Cc1c(C)n(CCC(=O)O)c2ccccc12`, the activity change, negative = cytotoxicity is -6.21% (inactive). The same measure for `Cc1ccccc1C1=C/C(=C(\SS/C(C(=O)c2ccc(OCC(=O)O)c(Cl)c2Cl)=C2\C=C(c3ccccc3C)SS2)C(=O)c2ccc(OCC(=O)O)c(Cl)c2Cl)SS1`: -8.33% (inactive).

In the case of `COc1c2c(nc3occc13)C(CCC(C)(C)O)(OC)C(O)CC2` (stereo not given), the activity change, negative = cytotoxicity was -4.6% (inactive). As for `CCN(CC)S(=O)(=O)N1CCN(S(=O)(=O)N2CCOCC2)CC1`, the figure is 1.89% (inactive). The same measure for `COc1ccc(NC(=O)CO/N=C2/CCCc3nonc32)c(OC)c1`: -3.9% (inactive); for `CC(=O)O[C@@H]1[C@@H](OC(C)=O)[C@H](n2ccc3cc([N+](=O)[O-])ccc32)OC[C@@H]1OC(C)=O`: -3.68% (inactive). As for `O=C(NC12CC3CC(CC(C3)C1)C2)N1CCN(c2ncccn2)CC1`, the figure is 12.9% (inactive); as for `Cc1cc(C)n(CCC(=O)N/N=C/c2ccc(O)cc2O)n1`, -6.35% (inactive); as for `Cc1cc(/C=N/Nc2ccc([N+](=O)[O-])cn2)c(C)n1-c1cccc(C(=O)O)c1`, -4.63% (inactive).

As for `O=C(c1ccccc1)c1ccc(O)cc1O`, the activity change, negative = cytotoxicity is -20.5% (inactive). Consider `COC(=O)C1CCN(C(=O)COC(=O)Cc2c[nH]c3ccccc23)CC1`, for which the activity change, negative = cytotoxicity was -20.6% (inactive).

In the case of `Nc1ccc2nonc2c1[N+](=O)[O-]`, the activity change, negative = cytotoxicity is 2.26% (inactive). The same measure for `O=C(O)CCCN1C(=O)/C(=C/C=C/c2ccco2)SC1=S`: -9.04% (inactive).
